Reference: patent publication US20070104645A1, “Chelate based scaffolds in tumor targeting” (priority 2003, published 2007)
Square brackets hold non-standard residues; d marks the D form. Peptide text beside a SMILES is read from it. Ava = NCCCCC(=O)O

Tests used:
[1] = molecular target: T1, ανβ3 receptor (Homo sapiens, UniProt P05106+P06756); experiment: whole cell adhesion inhibition assay (HBEC cells on vitronectin-coated plates); assay type: cell-based; details: for inhibition of HBEC adhesion (in words): 100 uM
T1 construct: endothelial cells known to express ανβ3 receptors on their surface (HBEC cells); endogenous in cells; host or cells: HBEC endothelial cells
T1 sequence (P06756 31-889 limits assumed): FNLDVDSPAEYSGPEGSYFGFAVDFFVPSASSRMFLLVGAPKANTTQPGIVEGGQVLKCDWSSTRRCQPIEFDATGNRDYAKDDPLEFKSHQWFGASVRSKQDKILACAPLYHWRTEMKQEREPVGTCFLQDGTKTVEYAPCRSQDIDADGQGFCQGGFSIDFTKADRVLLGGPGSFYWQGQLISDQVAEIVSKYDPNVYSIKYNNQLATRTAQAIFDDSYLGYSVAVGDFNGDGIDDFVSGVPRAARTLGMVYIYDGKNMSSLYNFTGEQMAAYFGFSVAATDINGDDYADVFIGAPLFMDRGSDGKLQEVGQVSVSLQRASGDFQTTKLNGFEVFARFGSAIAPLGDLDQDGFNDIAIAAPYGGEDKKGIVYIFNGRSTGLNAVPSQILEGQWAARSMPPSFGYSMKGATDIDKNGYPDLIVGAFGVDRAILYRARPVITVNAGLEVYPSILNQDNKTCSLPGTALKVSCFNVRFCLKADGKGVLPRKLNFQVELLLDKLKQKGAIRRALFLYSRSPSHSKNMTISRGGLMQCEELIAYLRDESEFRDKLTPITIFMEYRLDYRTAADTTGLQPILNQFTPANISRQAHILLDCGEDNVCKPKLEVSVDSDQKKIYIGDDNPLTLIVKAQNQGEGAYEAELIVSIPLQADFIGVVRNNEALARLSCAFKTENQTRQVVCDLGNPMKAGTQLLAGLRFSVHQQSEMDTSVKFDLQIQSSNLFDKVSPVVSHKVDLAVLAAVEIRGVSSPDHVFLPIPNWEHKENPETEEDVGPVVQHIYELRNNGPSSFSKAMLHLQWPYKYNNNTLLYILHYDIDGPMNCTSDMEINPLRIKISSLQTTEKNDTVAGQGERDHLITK
T1 sequence (P06756 891-1048 partner limits assumed): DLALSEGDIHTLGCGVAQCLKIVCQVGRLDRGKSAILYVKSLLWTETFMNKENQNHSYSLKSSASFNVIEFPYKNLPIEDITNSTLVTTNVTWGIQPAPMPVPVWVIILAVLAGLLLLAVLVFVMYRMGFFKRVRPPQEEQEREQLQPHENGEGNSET
T1 sequence (P05106 27-788): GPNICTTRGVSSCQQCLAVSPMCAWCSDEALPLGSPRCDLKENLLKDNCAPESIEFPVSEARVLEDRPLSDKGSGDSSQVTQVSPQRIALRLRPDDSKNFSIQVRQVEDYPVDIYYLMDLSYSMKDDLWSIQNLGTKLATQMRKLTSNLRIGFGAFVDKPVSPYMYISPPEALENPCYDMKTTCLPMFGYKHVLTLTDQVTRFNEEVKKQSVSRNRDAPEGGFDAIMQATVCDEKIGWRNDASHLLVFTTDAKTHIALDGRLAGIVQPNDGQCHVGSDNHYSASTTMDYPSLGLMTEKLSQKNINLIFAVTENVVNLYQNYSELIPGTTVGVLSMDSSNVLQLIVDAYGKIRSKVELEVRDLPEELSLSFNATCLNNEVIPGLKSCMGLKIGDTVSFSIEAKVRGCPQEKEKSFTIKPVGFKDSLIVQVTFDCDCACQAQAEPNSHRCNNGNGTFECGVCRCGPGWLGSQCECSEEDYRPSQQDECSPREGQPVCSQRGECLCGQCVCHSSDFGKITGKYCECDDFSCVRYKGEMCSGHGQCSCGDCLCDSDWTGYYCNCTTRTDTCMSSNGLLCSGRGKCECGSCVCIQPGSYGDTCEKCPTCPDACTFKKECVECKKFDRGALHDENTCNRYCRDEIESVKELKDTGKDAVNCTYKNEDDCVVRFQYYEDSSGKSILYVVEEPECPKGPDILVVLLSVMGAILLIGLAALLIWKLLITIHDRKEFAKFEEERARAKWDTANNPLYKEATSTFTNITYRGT
Text: Biological Assay Studies: A biological whole cell adhesion inhibition assay was developed to evaluate the synthesized macrocyclic RGD mimetics. This assay uses endothelial cells known to express ανβ3 receptors on their surface (HBEC cells) and also known to require vitronectin binding at the ανβ3 receptor to initiate adhesion processes. Vitronectin was coated on microtiter plates and exposed to cell suspensions. As the target molecules prepared herein compete with vitronectin for binding at the ανβ3 they will interfere with the adhesion process. This can be used to quantify/rank their ability to do so. The amount of ανβ3 mediated adhesion was determined by cell staining with subsequent quantitation by UV absorption proportional to the amount of stain present. This test procedure has been optimized with regard to vitronectin quantities, cell numbers, volumes, times, and the cell staining process.

[2] = test system: Leydig cell tumor; details: mouse-based Leydig cell tumor model; cited from earlier work

Row | Structure (SMILES) | inhibition of HBEC adhesion (in words) [1] | decrease in amount of adhesion ([1]; 20 uMolar) | reduction in tumor growth [2]
1 | [H]/N=C(/N)NCCCC(N)C(=O)NCC(=O)NC(CC(=O)O)C(=O)NC(CO)C(=O)O (stereo not shown) [RGDS] | decreased it completely | 69% | 
2 | NCCCCC(=O)NCC(=O)NC(CC(=O)O)C(=O)NC(CO)C(=O)O (stereo not shown) [lot A015-82PBS] (H-[Ava]GDS-OH; configuration not given here) | completely inactive |  | 
3 | NC(N)=Nc1cccc(C(=O)NCC(=O)NC(CC(=O)O)c2cc(Cl)cc(Cl)c2)c1 (stereo not shown) [SC-68448] |  |  | up to 80%
